Measurements: patent publication US8114412B2, “T. cruzi-derived neurotrophic agents and methods of use therefor” (priority 1999, dated 2012)
“Also recorded” adds a separate entry of the source.

What was measured:
PC12 cells [1] = test: Trophic factor withdrawal-induced apoptosis of PC12 cells (DAPI/TUNEL); type: cell-based, rat; details: for inhibition of apoptosis of PC12 cells by peptides: further studies; for protection of PC12 cells from apoptosis induced by trophic factor withdrawal: 17 hours
Text: (§1) PC12 cells were obtained from ATCC (Manassas, Va. (Accession No. CRL-1721)) and cultured on collagen-coated dishes in RPMI 1640 supplemented with 10% horse serum and 5% fetal bovine serum (Greene, L. A. and Tishler, A. S., Proc. Natl. Acad. Sci. USA, 73: 2424-2428 (1976)). For differentiation and survival experiments, cells were washed three times in serum-free RPMI/0.2% BSA, plated in the same medium in collagen-coated plastic dishes at 2×10^5/ml, without and with growth factors, TS, recombinant proteins, synthetic peptides, for the time and concentrations indicated in the Figures.
Cell staining with 4,6-diamino-2-phenylindole (DAPI). Cells were fixed with 4% formaldehyde in PBS for 5 minutes, washed with PBS, stained with 10 μg/ml DAPI (Sigma) for 2 minutes, washed with PBS, and visualized under UV light using a fluorescent microscope. About 300-400 cells were examined under the microscope to determine the percentage of apoptotic cells.
Cell DNA nick end labeling (TUNEL) (Gavrieli, Y., et al., J. Cell. Biol. 119: 493-501 (1992)) assay was performed using a kit purchased from Boehringer Mannheim as described by the manufacturer.
(§2) Protection against apoptosis of PC12 cells in serum-free medium containing a test agent (agent N)(e.g., protection induced by TS, TS fragments, NGF or other growth factors), was calculated by the formula: 100%-[(apoptosis(%) of cells kept in RPMI containing test agent N÷apoptosis (%) of cells kept in RPMI)×100%]. Testing the effect of wortmannin (Sigma) and LY294002 (Sigma) in inhibiting the neuroprotection of TS was performed following the protocol described by others (Yao and Cooper, Science, 267:2003-2006 (1995); D'Mello et al., J. Neurosci 17:1548-1560 (1997)). In brief, PC12 cells were switched from growth medium to RPMI without and with TS or various other growth factors. After 24 hr, wortmannin and LY294002 were added to the cultures. After another 24 hrs, cells were examined for apoptosis by the DAPI assay, as above.

PC12 cells [2] = test: Neurite outgrowth assay in PC12 cells; type: cell-based, rat
Text: as §1
96-well microtiter plates were coated overnight at 4° C. with the TS or peptides or fragments thereof, or with control proteins laminin (Ln) or bovine serum albumin (BSA) at 500 μg/ml. After removing the compounds, the plates were further incubated with 1% BSA for 1 hour at room temperature and immediately used as substratum for PC12 or N18 (Prasad, K. N., Biol Rev Camb Philos Soc, 66:431-451 (1991)) cells in serum-free RPMI/0.2% BSA. Neurite outgrowth was measured using a phase-contrast microscope 17 hours later.

human Schwann cells = test: Serum withdrawal-induced apoptosis of immortalized human Schwann cells (DAPI); type: cell-based; details: for inhibition of apoptosis of Schwann cells by peptides: further studies
PC12 cells [3] = test: Reversal of TS-induced neuroprotection by PI-3 kinase inhibitors in PC12 cells; type: cell-based, rat; set-up: neuronal viability relative to TS-F without wortmannin / neuronal viability relative to TS-F+CNTF without wortmannin: dose or concentration left out as unconfirmed
Method: as §2

[4] = test system: peripheral blood mononuclear cells (PBMC); test: IL-6 secretion by PBMC (ELISA); type: cell-based, human; set-up: IL-6 secretion by PBMC: dose or concentration left out as unconfirmed; details: 24 hrs culture
Method: (§3) Primary cultures of human intestinal microvascular endothelial cells (HIMEC) isolated from normal jejunal mucosa/submucosal tissue were prepared as described (Strong et al., Gastroenterology 114: 1244-1256 (1998)). The HIMEC were cultured in fibronectin-coated plasticware in MCDB medium (Sigma) supplemented with 20% FBS, 90 μg/ml heparin and 50 μg/ml endothelial cell growth factor (Sigma). T-24 cells (ATCC Accession No. HTB-4) were cultured in M199 medium supplemented with 10% FBS. PBMC were purified by Ficoll-Paque gradient as described (Current Protocols in Immunology, pp 7.1.1-7.1.2). Vero cells (ATCC Accession No. CCL-81) were grown in RPMI medium with 5% Nu serum and infected with the Silvio X-10/4 of T. cruzi as described previously (Chuenkova et al., J. Exp. Med. 181: 1693-1703, (1995)).
Endothelial cells and T-24 cells were plated on 24-well plates at a density of 1×10^3 cells/well, while peripheral blood mononuclear cells (PBMC) were plated in the similar wells at 1×10^6/well. Triplicat cultures of cells were incubated test agents for a predetermined amount of time. […] Cytokines and chemokines released in the culture supernatants were measured by ELISA assay following the instructions of the manufacturer (Endogen). The cytokines tested were IL-1β, IL-4, IL-8, IL-10, IL-12, IFN-γ, TNF-α, and the chemokines RANTES and MCP-1. Negative controls were cells incubated in medium containing polymixin B at 10 μg/ml, and positive controls were cells incubated with bacterial LPS at the low ng/ml range (for PBMC or HIMEC) or in the μg/ml range for carcinoma T-24 cells. In some experiments, IL-1β, or TNFα were used as positive control for cytokine release.
TR peptides (Table 2) were synthesized at the Tufts Synthesis Facility (Boston, Mass.). Each peptide was purified by HPLC, and the number of amino acids and molecular weight of each peptide verified by mass spectrometry. Peptides were dissolved in growth medium (10% FCS in RPMI) and added at various concentrations to 1×10^6 PBMC/well in 24-well plates. After 24 hrs, IL-6 was assayed by ELISA in the conditioned supernatants.

normal human neutrophils = test: IL-6 production by normal human neutrophils; type: cell-based
[5] = test system: human intestinal microvascular endothelial cells (HIMEC); test: IL-6 secretion by HIMEC (ELISA); type: cell-based; details: 24 hrs culture
Method: as §3
Endothelial cells and T-24 cells were plated on 24-well plates at a density of 1×10^3 cells/well, while peripheral blood mononuclear cells (PBMC) were plated in the similar wells at 1×10^6/well. Triplicat cultures of cells were incubated test agents for a predetermined amount of time. […] Cytokines and chemokines released in the culture supernatants were measured by ELISA assay following the instructions of the manufacturer (Endogen). The cytokines tested were IL-1β, IL-4, IL-8, IL-10, IL-12, IFN-γ, TNF-α, and the chemokines RANTES and MCP-1. […]

N18 cells = test: Neurite outgrowth assay in N18 cells; type: cell-based; details: immobilized proteins coated at 500 μg/ml, 17 hours (FIG. 3A)
Method: FIG. 3A is a graph showing that neurite outgrowth in N18 cells is induced by immobilized laminin (Ln), immobilized TS and immobilized fragments of TS. Proteins were immobilized by incubating plates which contained wells filled with solutions of the proteins (protein concentration was 500 μg/ml) at 4° C. overnight. The protein solutions were removed and the plates were further incubated with 1% BSA at room temperature for one hour. N18 cells were cultured in the coated wells in serum-free RPMI-1640/0.2% BSA for 17 hours, and neurite outgrowth was measured by phase-contrast microscopy. […] Ln, laminin; TS, purified T. cruzi trans-sialidase; 7F, recombinant TS from clone 7F; 19Y, recombinant TS from clone 19Y; TS-F, recombinant fragment consisting of amino acid residues 33-666 of TS (SEQ ID NO:2); TS-CC-47, recombinant fragment consisting of amino acid residues 79-478 of TS (SEQ ID NO:2); TS-Cat-47, recombinant fragment consisting of amino acid residues 79-415 of TS (SEQ ID NO:2); BSA, bovine serum albumin.
96-well microtiter plates were coated overnight at 4° C. with the TS or peptides or fragments thereof, or with control proteins laminin (Ln) or bovine serum albumin (BSA) at 500 μg/ml. […] Neurite outgrowth was measured using a phase-contrast microscope 17 hours later.

[6] = test system: primary cultures of rat Schwann cells; details: reported (Weiner and Chun 1999); cited from earlier work
[7] = neurite outgrowth assay, concentration not given
[8] = synthetic peptides 1 μM, DAPI (FIG. 6B)

Row | Compound | apoptosis suppressing effect of peptide in presence of PI-3 kinase inhibitor LY294002, PC12 cells (PC12 cells [1]) | inhibition of apoptosis of PC12 cells by peptides (PC12 cells [1]) | neurite outgrowth in PC12 cells (PC12 cells [2]; [7]) | apoptosis suppressing effect of peptide in presence of PI-3 kinase inhibitor LY294002, Schwann cells (human Schwann cells) | inhibition of apoptosis of Schwann cells by peptides (human Schwann cells) | other results
1 | RQRLPKRMGGSYRCVNASTAH [CFN1] | inhibited | potent suppressors of apoptosis | had direct neurotrophic activity | inhibited | potent suppressors of apoptosis | 
2 | COC[C@H]1OC(=O)c2coc3c2[C@@]1(C)C1=C(C3=O)[C@@H]2CCC(=O)[C@@]2(C)C[C@H]1OC(C)=O [wortmannin] |  |  |  |  |  | neuronal viability relative to TS-F without wortmannin (PC12 cells [3]; wortmannin with TS-F): 57±2%; neuronal viability relative to TS-F+CNTF without wortmannin (PC12 cells [3]; wortmannin with TS-F+CNTF): 80±3%
3 | QPLRRQRVVVVPLSPRLVLLAFCRQRLPLKRMGGSYRCVNASTAN [peptide C44] | inhibited | potent suppressors of apoptosis | had direct neurotrophic activity; also recorded: induce dose dependent outgrowth of neurites | inhibited | potent suppressors of apoptosis | protection of PC12 cells from apoptosis induced by trophic factor withdrawal (PC12 cells [1]; [8]): protected PC12 cells from apoptosis
4 | VNASTAN [CYFN] | inhibited | did not inhibit apoptosis |  | inhibited | did not inhibit apoptosis | 
5 | GNASQNYWEDAYRC [CYN2] | inhibited | suppressed apoptosis but was less active |  | inhibited | suppressed apoptosis but was less active | 
6 | RQRLPKRMGGSYRC [peptide C14] | inhibited | potent suppressors of apoptosis | had direct neurotrophic activity; also recorded: induce dose dependent outgrowth of neurites | inhibited | potent suppressors of apoptosis | protection of PC12 cells from apoptosis induced by trophic factor withdrawal (PC12 cells [1]; [8]): protected PC12 cells from apoptosis
7 | DSSAHGAPSTPADSSAHGTPSTPVDSSAHGTPSTPADSSAHSTPSTPADSSAHSTPSTPA [TR5] |  |  |  |  |  | IL-6 secretion by PBMC [4]: active in promoting IL-6 release
8 | DSSAHGTPSTPA [peptide TR, control peptide derived from the tandem repeat] |  | did not inhibit apoptosis | did not induce neurite outgrowth; also recorded: did not promote neurite outgrowth |  | did not inhibit apoptosis | 
9 | YSVDDGETWE [peptide B2, control peptide] |  | did not inhibit apoptosis | did not induce neurite outgrowth; also recorded: did not promote neurite outgrowth |  | did not inhibit apoptosis | 
10 | GNASQNVWEDAYRCVNASTAN [C19Y21] | inhibited | potent suppressors of apoptosis |  | inhibited | potent suppressors of apoptosis | 
11 | DSSAHGAPSTPADSSAHGTPSTPVDSSAHGTPSTPA [TR3] |  |  |  |  |  | IL-6 secretion by PBMC [4]: less active
12 | TNF-A |  |  |  |  |  | IL-6 production by normal human neutrophils (normal human neutrophils): did elicit secretion of IL-6
13 | DSSAHGAPSTPADSSAHGTPSTPVDSSAHGTPSTPADSSAHSTPSTPA [TR4] |  |  |  |  |  | IL-6 secretion by PBMC [4]: active in promoting IL-6 release
14 | DSSAHGAPSTPA [peptide TR1] |  |  |  |  |  | IL-6 secretion by PBMC [4]: less active
15 | VCNA: neuraminidase from Vibrio cholera, Calbiochem [reference compound] |  |  | did not induce neurite outgrowth |  |  | protection of PC12 cells from apoptosis induced by trophic factor withdrawal (PC12 cells [1]; serum-free RPMI-1640/0.2% BSA, DAPI or TUNEL): did not; neurite outgrowth in PC12 cells (PC12 cells [2]; soluble in serum-free RPMI-1640/0.2% BSA, collagen coated dishes, 16 hours, NGF 0.1 μg/ml, VCNA 2.4 μg/ml, TS 1 μg/ml): does not induce neurite outgrowth; IL-6 secretion by HIMEC [5]: did not stimulate detectable IL-6 secretion
16 | laminin [reference compound] |  |  |  |  |  | neurite outgrowth in N18 cells (N18 cells): induced
17 | lysophosphatidic acid |  |  |  |  |  | active dose for primary cultures of rat Schwann cells [6]: ≥ 10 nM
18 | DSSAHGAPSTPADSSAHGTPSTPV [TR2] |  |  |  |  |  | IL-6 secretion by PBMC [4]: less active
